“And” between values parts separate entries of the source, which are not always exact repeats. Identical values can stand only once.
Legend:
[1] = test system: LPS-induced production of TNF-α; experiment: LPS-induced TNF-α production in mice (plasma ELISA); format: in vivo; details: Balb/c mice; dexamethasone 3 mpk, LPS 1 mpk i.p. 0.5 h after administration, plasma 2 h after LPS
Protocol: Materials and method: A total of 18 mice were used in this experiment. The mice were divided into a MOCK group (n=6), a dexamethasone group (n=6), and a GEN1-284s 15 mpk group (n=6). LPS (1 mpk) was intraperitoneally injected 0.5 h after administration. The mice were sacrificed 2 h after the LPS injection, and blood samples were taken. The blood samples were left in EDTA-K2 anticoagulant tubes at room temperature for 20 min and centrifuged at 8000 rpm for 10 min. The plasma was separated and cryopreserved at −80° C. before analysis.
LPS (1 mpk) was intraperitoneally injected 0.5 h after administration. The mice were sacrificed 2 h after the LPS injection, and blood samples were taken. The blood samples were left in EDTA-K2 anticoagulant tubes at room temperature for 20 min and centrifuged at 8000 rpm for 10 min. The plasma was separated and cryopreserved at −80° C. before analysis.
The mice were tested for TNF-α level with ELISA kits, and the inhibitory effect of GEN1-284s on the TNF-α level was evaluated.
According to the instructions for use, a standard curve formula (y=0.0038x+0.1206, R^2=0.9956) was obtained and can be used to calculate detection values.

[2] = test system: IMQ-induced psoriasis mouse model; experiment: IMQ-induced psoriasis mouse model (PASI scoring); format: in vivo, Balb/c mice; design: key to skin thickening in psoriasis mice (score) / skin redness in psoriasis mice (score) / skin scaling in psoriasis mice (score): 0 = none to 4 = very severe, per sign; details: DEX 3 mpk PO QD
Protocol: Method: This experiment used a total of 19 mice. A natural skin observation control (n=1). 2 cm^2 of hair was shaved off the backs of […] on day 0, the stubble was removed with a mild depilatory cream, and the original skin was photographed. 62.5 mg of IMQ was applied to each of the mice. There was a mock group (n=6), a DEX (3 mg/kg, PO., qD) group (n=6), and a GEN1-284s (30 mg/kg, PO, qD) group (n=6). On the day of modeling, administration was performed in a volume of 100 μL/20 g body weight 4 h after IMQ application. The PASI scoring method was used to score the erythema, swelling and scaling on the skin of the mice. The experiment took a total of 6 days. The first day was set to day 0. IMQ application and administration were not performed on day 5. The mice were sacrificed with carbon dioxide at the end of the experiment.
The test animals were anesthetized with isoflurane. 2 cm^2 of hair was shaved off the backs of the mice, and the stubble was removed with a depilatory cream. IMQ application was performed for a total of 5 days, from day 0 to day 4. Scoring and IMQ application were performed every morning. Administration was performed in the afternoon
Desquamation (D): means epidermal cells flake off. The severity scores of skin lesions were as follows: • 0=none; this sign cannot be confirmed by careful observation • 1=mild; this sign can be confirmed but careful observation is required • 2=moderate; this sign is more visible and can be confirmed immediately • 3=severe; this sign is marked. • 4=very severe; this sign is very marked.
Induration I: 0—skin lesions are at the same level as normal skin; • 1—skin lesions are at slightly higher levels than normal skin surface; • 2—lesions moderately stick out and have round or slope-shaped borders; • 3—skin lesions are thick and markedly stick out; • 4—skin lesions are very thick and very markedly stick out.
Erythema E: • 0—no visible erythema; • 1—light red; • 2—red; • 3—dark red; • 4—the red is very dark

[3] = DAY 1, individual mice, listed as DEX
[4] = DAY 2, individual mice, listed as DEX
[5] = DAY 3, individual mice, listed as DEX
[6] = DAY 4, individual mice, listed as DEX
[7] = DAY 5, individual mice, listed as DEX

C[C@@H]1C[C@H]2[C@@H]3CCC4=CC(=O)C=C[C@]4(C)[C@@]3(F)[C@@H](O)C[C@]2(C)[C@@]1(O)C(=O)CO [dexamethasone, Dexamethasone, reference compound]
Inhibition rate against LPS-induced TNF-α [1]: 81% | overall effect on the skin of psoriasis mice (score) ([2]; DAY 0, individual mice): 0 | skin redness in psoriasis mice (score) ([2]; DAY 0, individual mice): 0 | skin scaling in psoriasis mice (score) ([2]; DAY 0, individual mice): 0 | skin thickening in psoriasis mice (score) ([2]; DAY 0, individual mice): 0 | overall effect on the skin of psoriasis mice (score) [2, 3]: 1.167 (2×) and 0.5 and 1.333 (2×) and 0.8333 | skin redness in psoriasis mice (score) [2, 3]: 0.6667 (2×) and 0.1667 and 0.3333 and 0.5 (2×) | skin scaling in psoriasis mice (score) [2, 3]: 0.5 and 0.3333 (2×) and 0.8333 (2×) and 0.1667 | skin thickening in psoriasis mice (score) [2, 3]: 0 (5×) and 0.5 | overall effect on the skin of psoriasis mice (score) [2, 4]: 1.333 and 1 and 0.5 and 0.8333 and 1.667 and 0.6667 | skin redness in psoriasis mice (score) [2, 4]: 0.5 (2×) and 0.6667 (2×) and 0.1667 (2×) | skin scaling in psoriasis mice (score) [2, 4]: 0.8333 and 0.3333 and 0 (2×) and 0.6667 and 1 | skin thickening in psoriasis mice (score) [2, 4]: 0 (5×) and 0.5 | overall effect on the skin of psoriasis mice (score) [2, 5]: 2.5 and 3 and 1 and 2 (2×) and 1.667 | skin redness in psoriasis mice (score) [2, 5]: 1.167 and 1 and 0.5 (2×) and 0.3333 and 0.6667 | skin scaling in psoriasis mice (score) [2, 5]: 1.333 and 1.5 and 0.5 (2×) and 1 and 1.167 | skin thickening in psoriasis mice (score) [2, 5]: 0 (2×) and 0.5 (4×) | overall effect on the skin of psoriasis mice (score) [2, 6]: 2.333 (2×) and 1.5 and 3.5 and 3.667 and 2.667 | skin redness in psoriasis mice (score) [2, 6]: 0.6667 and 0.5 (2×) and 1.167 (2×) and 1.667 | skin scaling in psoriasis mice (score) [2, 6]: 1.167 and 1 (2×) and 1.833 and 1.333 and 1.5 | skin thickening in psoriasis mice (score) [2, 6]: 0.5 (5×) and 0 | overall effect on the skin of psoriasis mice (score) [2, 7]: 3.333 and 2.5 and 3.667 and 2.833 (2×) and 3.5 | skin redness in psoriasis mice (score) [2, 7]: 1.167 and 1 (2×) and 0.8333 and 0.6667 and 1.5 | skin scaling in psoriasis mice (score) [2, 7]: 1.667 (2×) and 1.5 (2×) and 2.333 and 1.333 | skin thickening in psoriasis mice (score) [2, 7]: 0.5 (5×) and 0

Reference: US20240391940A1, “FUSED RING-CONTAINING COMPOUND, APPLICATION THEREOF, AND COMPOSITION CONTAINING SAME” (GenEros Biopharma Ltd., priority 2020, published 2024)
